Measured values taken from patent publication US20050037949A1, “Mannose binding lectin and uses thereof” (priority 2002, published 2005).
Non-standard residues stand in square brackets, D forms with d. No end group written: not given here. *: point of attachment. Dnp = O=[N+]([O-])c1ccc(*)c([N+](=O)[O-])c1; 2Abz = Nc1ccccc1C(=O)O

Columns and labels:
[1] = tested on: MASPs in purified MBL-MASP complex; experiment: Substrate cleavage assay: kinetic constants of MASP proteolytic activity on synthetic C4-based substrates; type: biochemical; details: proteolytic activity of MASPs in purified MBL-MASP complex on the synthetic substrate; sigmoidal kinetics
Procedure: For quantitative measurements, typically the signal emitted by the label is measured from the beginning of the reaction and the results used to obtain an initial rate. Substrates consisting only of the residues N-terminal to the cleavage site of C4 show normal Michaelis-Menten kinetics for their cleavage by both C1s and the MBL-MASP complex. This means that the dependence of the initial velocity for the cleavage reaction on substrate concentration can be described by a rectangular hyperbola and the constants Km (Michaelis constant which equates to the affinity between enzyme and substrate) and Vmax (maximal velocity of the reaction) can be derived from a non-linear regression fit of the data. […]
The substrate (2Abz-[…]-Lys(Dnp)-NH2) includes the four amino acids before and after the C4 cleavage site and an aminobenzoic acid (Abz) fluorescent group attached to its N-terminal end. […] The change in fluorescence can then be measured and is proportional to the proteolytic activity of the enzyme.
The substrate and enzymes (C1s (10 μg/mL) or purified MBL material) are incubated for several minutes in a fluorescence plate reader set at 37° C. 100 μL of diluted substrate is then transferred into wells containing 100 μL diluted enzyme (C1s or purified MBL material) and the kinetics of fluorescence is measured as follows: excitation=320 nm; emission=420 nm. […]

[2] = tested on: C4b deposition from MBL-deficient human serum on solid-phase mannan; experiment: Functional complement (C4) deposition assay; type: biochemical; details: for Complement activation capacity (in words): Example 4 titration, 1-100 μg/ml
Procedure: All quantitation assays were standardised using an international, primary standard pool serum (Statens Serum Institut, Copenhagen, Denmark), containing 3.3 μg MBL/ml serum. For the sandwich ELISA and the C4 deposition assay, a standard curve was made with 1:25, 1:50, 1:75, 1:100, 1:150 and 1:200 dilutions of this serum, tested in triplicate. Standard dilutions for the mannan binding ELISA were 1:25, 1:50, 1:100, 1:150, 1:200, 1:300 and 1:400. Diluents were as detailed below. An in-house secondary control was prepared from pooled normal donor plasma and run in triplicate on each test plate, the results plotted for each run. Results of any test runs, in which values obtained for the in-house control MBL were outside +/−2SD from the previously determined mean value, led to rejection of the whole run. Run to run standard curves were overlayed to ensure a constant slope and thus provide another sensitive means of quality control.
Microtitre plates (as above) were coated overnight at 4° C. with 1 μg/mL mannan (Sigma-Aldrich Pty Ltd, Castle Hill, Australia) in fresh 50 mM carbonate-bicarbonate buffer, pH 9.6. Normal donor plasmas were tested in triplicate, diluted to 1:25 in TBST with 15 mM CaCl2, pH 7.2 which was also the wash buffer. A 1:10 dilution was also tested and interpreted only to confirm low or near absent levels of C4 deposition in donors with low amounts of MBL. After 90 minutes at 22° C., wells were washed 5 times and MBL-deficient human serum (completely deficient in MBL, obtained with informed consent) diluted 1:20 in barbital buffer, […], 10 mM sodium barbitone and 5 mM CaCl2 was added to wells and incubated at 22° C. for 30 minutes to enable complement activation. Wells were washed 5 times and biotinylated rabbit anti-human C4 (Sigma-Aldrich Pty Ltd) biotinylated using Biotin Tag (Sigma-Aldrich Pty Ltd) which was added at 1:1500 in TBST. Following incubation at 22° C. for 90 minutes, wells were washed 5 times and 1:500 ExtrAvidin peroxidase (Sigma-Aldrich Pty Ltd) in TBST was added and incubated at 22° C. for 40 minutes. Colour development and reading was as for the quantitation assays.
1 μl of Statens Serum Institut (SSI) MBL Standard was arbitrarily assigned 1 unit of C4 deposition activity. The assay was standardised against the SSI standard. Between run CV for the assay at 1:25 was 9.4%.
The positive control for MASP-2 activity was MASP containing, affinity-purified MBL complex. All fractions obtained in Example 1 were considered MASP-depleted with MASP activity measured as slope/sec less than 2.3 (range 0.5-2.3). […] Both MASP-depleted fractions and the MBL-MASP complex were titrated to provide MBL protein concentrations at 1 to 100 μg/ml. Fractions were assayed in parallel in the mannan-binding and C4-deposition assays as described in this document. The result from the Mannan-binding assay was plotted against C4 activity for each fraction.
The fractions supplied in Example 3 were pooled according to total protein concentration. […] The two MASP-depleted MBL pools were again titrated in the range of 1-100 μg/ml in parallel with the MBL-MASP complex. All samples were assayed on both the Mannan-binding and C4-deposition assays in parallel. Actual MBL quantification (mannan-binding assay) results were graphed against corresponding C4 activation capability for the fraction.

Substance: 2Abz-GLQRALEI-Lys(Dnp)-NH2 ([2Abz]GLQRALEIK(Dnp)-NH2; N-terminus assumed; SMILES CC[C@H](C)[C@H](NC(=O)[C@H](CCC(=O)O)NC(=O)[C@H](CC(C)C)NC(=O)[C@H](C)NC(=O)[C@H](CCCNC(=N)N)NC(=O)[C@H](CCC(N)=O)NC(=O)[C@H](CC(C)C)NC(=O)CNC(=O)c1ccccc1N)C(=O)N[C@@H](CCCCNc1ccc([N+](=O)[O-])cc1[N+](=O)[O-])C(N)=O) [C4 (P4-P4′), quenched fluorescent substrate with the four amino acids before and after the C4 cleavage site]
- Affinity constant K0.5 [1]: 6.50 ± 0.32 µM

Substance: MASP Pool 8-9: pool of MASP-depleted MBL fractions 8 and 9, total protein 35 μg/ml
- Complement activation capacity (in words) [2]: reached the high assay limit
- C4 ([2]; MBL 1.122 ug/mL, Table 3): 0.049 U/ul
- C4 ([2]; MBL 2.032 ug/mL, Table 3): 0.108 U/ul
- C4 ([2]; MBL 4.278 ug/mL, Table 3): 0.189 U/ul
- C4 ([2]; MBL 6.506 ug/mL, Table 3): 0.31 U/ul
- C4 ([2]; MBL 7.362 ug/mL, Table 3): 0.403 U/ul
- C4 ([2]; MBL 8.995 ug/mL, Table 3): 0.435 U/ul
- C4 ([2]; MBL 10.205 ug/mL, Table 3): 0.48 U/ul
- C4 ([2]; MBL 12.718 ug/mL, Table 3): 0.552 U/ul
- C4 ([2]; MBL 20 ug/mL, Table 3): 0.595 U/ul
- C4 ([2]; MBL 30 ug/mL, Table 3): 0.776 U/ul
- C4 ([2]; MBL 35 ug/mL, Table 3): 0.969 U/ul

Substance: MASP-depleted Frac. 3: fraction 3 of purified MASP-depleted MBL from the Example 1 Sephacryl S-300 column, 40 μg/mL
- C4 ([2]; MBL 1.02 ug/mL, Table 2): 0.107 U/ul
- C4 ([2]; MBL 2.1 ug/mL, Table 2): 0.202 U/ul
- C4 ([2]; MBL 2.57 ug/mL, Table 2): 0.359 U/ul
- C4 ([2]; MBL 5.65 ug/mL, Table 2): 0.568 U/ul
- C4 ([2]; MBL 7.97 ug/mL, Table 2): 0.761 U/ul
- C4 ([2]; MBL 10.53 ug/mL, Table 2): 0.818 U/ul
- C4 ([2]; MBL 12 ug/mL, Table 2): xs
- C4 ([2]; MBL 16 ug/mL, Table 2): xs
- C4 ([2]; MBL 20 ug/mL, Table 2): xs
- C4 ([2]; MBL 30 ug/mL, Table 2): xs
- C4 ([2]; MBL 40 ug/mL, Table 2): xs

Substance: MASP-depleted Frac. 5: fraction 5 of purified MASP-depleted MBL from the Example 1 Sephacryl S-300 column, 80 μg/mL
- C4 ([2]; MBL 1.32 ug/mL, Table 2): 0.081 U/ul
- C4 ([2]; MBL 2.49 ug/mL, Table 2): 0.137 U/ul
- C4 ([2]; MBL 5.11 ug/mL, Table 2): 0.304 U/ul
- C4 ([2]; MBL 7.83 ug/mL, Table 2): 0.417 U/ul
- C4 ([2]; MBL 8.79 ug/mL, Table 2): 0.465 U/ul
- C4 ([2]; MBL 10 ug/mL, Table 2): 0.671 U/ul
- C4 ([2]; MBL 12 ug/mL, Table 2): 0.716 U/ul
- C4 ([2]; MBL 16 ug/mL, Table 2): 0.805 U/ul
- C4 ([2]; MBL 20 ug/mL, Table 2): 0.762 U/ul
- C4 ([2]; MBL 30 ug/mL, Table 2): 0.906 U/ul
- C4 ([2]; MBL 40 ug/mL, Table 2): xs
- C4 ([2]; MBL 80 ug/mL, Table 2): xs

Substance: MASP-depleted Pool 3-7: pool of MASP-depleted MBL fractions 3-7, total protein 85 μg/ml
- Complement activation capacity (in words) [2]: reached excess
- C4 ([2]; MBL 1.124 ug/mL, Table 3): 0.043 U/ul
- C4 ([2]; MBL 1.677 ug/mL, Table 3): 0.104 U/ul
- C4 ([2]; MBL 3.905 ug/mL, Table 3): 0.25 U/ul
- C4 ([2]; MBL 5.617 ug/mL, Table 3): 0.38 U/ul
- C4 ([2]; MBL 7.151 ug/mL, Table 3): 0.506 U/ul
- C4 ([2]; MBL 7.796 ug/mL, Table 3): 0.55 U/ul
- C4 ([2]; MBL 9.377 ug/mL, Table 3): 0.596 U/ul
- C4 ([2]; MBL 14.045 ug/mL, Table 3): 0.718 U/ul
- C4 ([2]; MBL 20 ug/mL, Table 3): 0.825 U/ul
- C4 ([2]; MBL 40 ug/mL, Table 3): 0.954 U/ul
- C4 ([2]; MBL 80 ug/mL, Table 3): xs
- C4 ([2]; MBL 85 ug/mL, Table 3): xs
